Data as given in PMC3682423 (The FEBS journal, 2011).

What was measured:
[1] = biological target: wt HIV-1 RT-associated RNase H activity (Human immunodeficiency virus type 1 group M subtype B, UniProt P03366); experiment: biochemical; format: biochemical
[2] = biological target: wt HIV-1 RT-associated RDDP activity (Human immunodeficiency virus type 1 group M subtype B, UniProt P03366); experiment: biochemical
K103N RT RNase H = K103N RT RNase H (Human immunodeficiency virus type 1 group M subtype B, UniProt P03366, K702N); experiment: biochemical; design: species or system HIV-1
K103N RT RDDP = K103N RT RDDP (Human immunodeficiency virus type 1 group M subtype B, UniProt P03366, K702N); experiment: biochemical; design: species or system HIV-1
Y181C RT RNase H = Y181C RT RNase H (Human immunodeficiency virus type 1 group M subtype B, UniProt P03366, Y780C); experiment: RNase H polymerase-independent cleavage assay, Y181C RT; format: biochemical, HIV-1
Y181C RT RDDP = Y181C RT RDDP (Human immunodeficiency virus type 1 group M subtype B, UniProt P03366, Y780C); experiment: biochemical; design: species or system HIV-1
[3] = biological target: isolated HIV RNase H domain (p15) (Human immunodeficiency virus type 1 group M subtype B, UniProt P03366); experiment: Quenching of intrinsic fluorescence of the isolated RNase H domain; format: binding, HIV-1

For O=C1c2ccccc2C(=O)c2c1ccc(O)c2O [Alizarine, alizarine], the IC50 [1] was greater than 100 µM, the “inhibition of wt RT-associated RNase H function (in words)” value ([1]; wt RT) was “inactive” and the IC50 [2] was 79 ± 8 µM. For the same molecule, the IC50 (K103N RT RNase H) was greater than 100 µM, the IC50 (K103N RT RDDP) was 68 ± 5 µM and the IC50 (Y181C RT RNase H) was greater than 100 µM. It also gave an IC50 (Y181C RT RDDP) greater than 100 µM.

Molecule O=C1Cc2ccccc2C(=O)N1O [2-hydroxy-1,2,3,4-tetrahydroisoquinoline-1,3-dione] has an IC50 [3] of 52 µM.
